Read-outs that look alike come from different tables or passages of the source.
What was measured:
stage IV NSCLC [1] = conditions: cited from earlier work
[2] = test system: primary and metastatic cancer; conditions: et al., cited from earlier work
[3] = test system: primary and metastatic cancer; conditions: et al., cited from earlier work; remark: listed apart in the source
stage IV NSCLC [4] = assay: Thoracoscopic lung suffusion, phase I clinical trial; type: in vivo, human
Source text: The term “suffusion” has been defined as the slow diffuse permeation of the tissues by an injectate during arterial or venous occlusion. Unlike methods for arterial infusion or isolated perfusion, those for suffusion require neither permanent occlusion nor recirculation. The technique involves isolating chemotherapy into the lung by interventional radiologic control of the pulmonary artery and endoscopic control of the pulmonary veins. The suffusion method was first described in a canine model in 2002. A minimally invasive approach and its short-term potential were established using a non-toxic tracer compound. Rapid permeation of the lung and 75% of tracer remaining isolated the lung for 30 minutes was observed.
One phase I clinical trial on four stage IV NSCLC patients has been conducted.

[5] = Schroder, 2002, 4 cases of metastatic sarcoma, following metastectomy
[6] = Burt, 2000, 8 cases of metastatic sarcoma
[7] = Hendriks, 2004, 16 cases of resectable pulmonary metastases, followed by metastectomy

## N.N.[Cl][Pt][Cl] [Cisplatin]
Stage IV NSCLC [1]; Demmy, et al., 2009, 4 cases of stage IV NSCLC, with systemic chemotherapy
  reduction in tumor volume: 14%-96%
Stage IV NSCLC [1]; four stage IV NSCLC patients, systemic chemotherapy began within 2 weeks of the suffusion
  Tumor volume reduced: 14% to 96%
[2]; So, 2004, 3 cases of locally advanced NSCLC, and carinal resection
  complete response: 100% complete
[3]; Ratto, 1996, 6 cases of metastatic sarcoma
  Interstitial and alveolar edema (number of cases): (2) cases
[3]; [5]
  disease-free after 1 year: 75% disease-
  localized pulmonary edema (number of cases): (4), reduced cases
  reduced pulmonary function at 3 weeks (number of cases): weeks (3) cases
Stage IV NSCLC [4]; total of ten patients treated by suffusion (unpublished data)
  patients who could not tolerate suffusion: One of 10
Stage IV NSCLC [4]; unpublished data, growth of tumor in other parts of the body despite systemic chemotherapy
  patients with evaluable disease showing control or reduction of the main tumor in the suffused lung: 4 of 5

## COc1cccc2c1C(=O)c1c(O)c3c(c(O)c1C2=O)C[C@@](O)(C(=O)CO)C[C@@H]3O[C@H]1C[C@H](N)[C@H](O)[C@H](C)O1 [Doxorubicin]
[3]; [6]
  Pulmonary fibrosis (number of cases): fibrosis (1), cases
  reduced pulmonary function (number of cases): function (7) cases
  response: 0% response

## N[C@@H](Cc1ccc(N(CCCl)CCCl)cc1)C(=O)O [Melphalan]
[3]; [7]
  Chemical pneumonitis (number of cases): pneumonitis (2), cases
  localized pulmonary edema (number of cases): (3), pneumonia cases
  pneumonia (number of cases): (1), cases
  pneumothorax (number of cases): pneumothorax (1) cases

## CO[C@@]12[C@H](COC(N)=O)C3=C(C(=O)C(C)=C(N)C3=O)N1C[C@@H]1N[C@@H]12 [Mitomycin C]
[2]; Neyazaki, 1969, 27 cases
  tumor volume reduced in: 52%
